Our source for the IC50 values is BindingDB's records for PubMed 33650861 (Sichuan University, 2021).

Each structure is given as a SMILES string.

As usually defined, the IC50 is the concentration that inhibits the measured activity by half.

A short description of this assay: Inhibition of BET (unknown origin).

Take `Cc1sc2c(c1C)C(c1ccc(Cl)cc1)=N[C@@H](CC(=O)OC(C)(C)C)c1nnc(C)n1-2`: the IC50 came to 500 nM.
